Experimental data from patent US11931464B2, “Minimizing agglomeration, aeration, and preserving the coating of pharmaceutical compositions comprising ibuprofen” (Catalent U.K. Swindon Zydis Limited, priority 2019, dated 2024).

How the values were obtained:
[1] = Aeration of suspension mixes, height of the foam in the mixing vessel; assay type: physicochemical; settings: for Foam Height: 0% mix: 5 mm
Source text: (§1) The effectiveness of chemical compounds comprising terpene and/or terpinol at minimizing aeration can be determined in part by measuring the particle size of the hydrophobic coated Ibuprofen in pharmaceutical suspension over time. If the chemical compound is effective, the aeration of the suspension will be adequately low and the particle size of the hydrophobic coated Ibuprofen will remain constant or decrease very little over time. If ineffective, the aeration of the suspension will be higher than desired and the particle size of the hydrophobic coated Ibuprofen can decrease more substantially over time. The extent of aeration of the suspension is assessed by measurement of height of the foam in the mixing vessel. The particle size of the functionally-coated particles can be measured using laser diffraction, a particle analyzer such as a Malvern Mastersizer, or any other suitable means for analyzing fine particles. Example 7: A series of suspension mixes were manufactured by mixing the coated Ibuprofen in the matrix solution/suspension containing various levels of limonene, orange flavor, and strawberry flavor. The height of the foam from these suspension is summarized in Table 7, 8, and 9 respectively.

[2] = Particle size of hydrophobic coated Ibuprofen in suspension with liquid flavor or limonene; assay type: physicochemical; settings: 0.25% w/w versus 0.45% w/w and 0.75% w/w, 24 hours
Source text: as §1, with “particles.” for “particles. Example 7: A series of suspension mixes were manufactured by mixing the coated Ibuprofen in the matrix solution/suspension containing various levels of limonene, orange flavor, and strawberry flavor. The height of the foam from these suspension is summarized in Table 7, 8, and 9 respectively.”
Example 8: FIGS. 10, 11, and 12 show the decrease in particle size (d10, d50, and d90, respectively) of hydrophobic coated Ibuprofen in a pharmaceutical suspension comprising various concentrations of liquid orange flavor. A particle size expressed in terms of its d10 means that 10 percent of the particles in a given volume of sample lie below a given particle size. […]

C=C(C)[C@H]1CC=C(C)CC1 [limonene]
Aeration of the suspension ([1]; 0.25% w/w): sufficiently low amount of aeration
Foam Height ([1]; 0.30% w/w in mix with coated Ibuprofen): 1 mm
Foam Height ([1]; 0.6% w/w in mix with coated Ibuprofen): 1 mm
Foam Height ([1]; […] w/w in mix with coated Ibuprofen): 2 mm
Effect on aeration ([1]; level […] w/w and above): minimize the aeration
Effect on the coating (particle size d10, d50, d90) [2]: much less deleterious effect
